# Non-standard residues stand in square brackets, D forms with d. *: point of attachment. Arg(NO2) = N=C(NCCC[C@H](N)C(=O)O)N[N+](=O)[O-]; OiPr = CC(C)O*
# How the values were obtained:
# [1] = Effect of concentration on the stability of the solution (purity over time); conditions: in water at 25° C.
# [2] = Effect of pH value on the stability of the solution (purity); format: physicochemical; conditions: for Purity(%) from day 0-28: 25° C.; for pH at which the solution is stable: 5% solution in 25% ethanol at 25° C.; for Time the solution can be stored at room temperature: 5% solution in 25% ethanol, pH 3-6
# [3] = Stability of the pure HPDs (dry solid) at 25° C./RH 60%; format: physicochemical; conditions: for Purity: pure HPD, 25° C./RH 60%, listed as A-1-1; for Purity at 3 month / Purity at 6 month / Purity at 9 month / Purity at 12 month / Purity at 18 month / Purity at 24 month / Purity at Day 0: pure HPD at 25° C./RH 60%; for Stability of the pure powder: room temperature (25° C./RH 60%)
# [4] = Effect of temperature (and pH) on the stability of the solution (purity); format: physicochemical; conditions: for Purity (%) at day 30 (60° C.) / Purity (%) at day 90 (60° C.) / Purity (%) at day 180 (60° C.) / Purity (%) at day 360 (60° C.) / Purity(%) at day 0 / Purity(%) at day 30 (5° C.) / Purity(%) at day 30 (25° C.) / Purity(%) at day 30 (40° C.) / Purity(%) at day 90 (5° C.) / Purity(%) at day 90 (25° C.) / Purity(%) at day 90 (40° C.) / Purity(%) at day 180 (5° C.) / Purity(%) at day 180 (25° C.) / Purity(%) at day 180 (40° C.) / Purity(%) at day 360 (5° C.) / Purity(%) at day 360 (25° C.) / Purity(%) at day 360 (40° C.): 5% solution with 1 equivalent sodium acetate in 25% ethanol, pH 4.49-4.51
compound,measurement,setting,value
"CCN(CC)CCOC(=O)[C@H](C)c1ccc2cc(OC)ccc2c1.Cl (racemic) [2-(diethylamino)ethyl (R,S)-2-(6-methoxy-2-naphthyl)propionate•HCl]",Purity at Day 3,[1]; 0.01 wt %,79.6%
same,Purity at Day 7,[1]; 0.01 wt %,73.4%
same,Purity at Day 14,[1]; 0.01 wt %,68.7%
same,Purity at Day 21,[1]; 0.01 wt %,64.5%
same,Purity at Day 28,[1]; 0.01 wt %,61.4%
same,Purity at hr 24,[1]; 0.01 wt %,91.7%
same,Purity at Day 7,[1]; 0.1 wt %,97.2%
same,Purity at Day 14,[1]; 0.1 wt %,96.1%
same,Purity at Day 21,[1]; 0.1 wt %,95.4%
same,Purity at Day 28,[1]; 0.1 wt %,94.1%
same,Purity at Day 14,[1]; 1 wt %,97.4%
same,Purity at Day 21,[1]; 1 wt %,96.9%
same,Purity at Day 28,[1]; 1 wt %,96.4%
same,Purity at Day 21,[1]; 3 wt %,97.6%
same,Purity at Day 28,[1]; 3 wt %,97.1%
same,Purity at Day 28,[1]; 5 wt %,97.5%
same,Purity at Day 21,[1]; 8 wt %,97.5%
same,Purity at Day 28,[1]; 8 wt %,97.6%
same,Purity at Day 21,[1]; 10 wt %,97.4%
same,Purity at Day 28,[1]; 10 wt %,97.6%
same,Purity at Day 21,[1]; 15 wt %,97.5%
same,Purity at Day 28,[1]; 15 wt %,97.6%
same,Purity at Day 21,[1]; 20 wt %,97.4%
same,Purity at Day 28,[1]; 20 wt %,97.6%
same,Stability when the concentration is 0.1% or lower,[1],not stable
same,Purity(%) from day 0-28,"[2]; day 28, pH 1.0, 7% solution in water",68.9 ± 0.3%
same,Purity(%) from day 0-28,"[2]; day 28, pH 2.0, 7% solution in water",80.9 ± 0.4%
same,Purity(%) from day 0-28,"[2]; day 28, pH 3.0, 7% solution in water",90.3 ± 0.3%
same,Purity(%) from day 0-28,"[2]; day 28, pH 3.7, 7% solution in water",97.2 ± 0.2%
same,Purity(%) from day 0-28,"[2]; day 28, pH 5.0, 7% solution in water",96.3 ± 0.2%
same,Purity(%) from day 0-28,"[2]; day 28, pH 6.0, 7% solution in water",89.9 ± 0.3%
same,Purity(%) from day 0-28,"[2]; day 28, pH 7.0, 7% solution in water",65.8 ± 0.3%
same,Purity(%) from day 0-28,"[2]; day 28, pH 8.0, 7% solution in water",45.8 ± 0.4%
same,Purity,[3]; 3 month,98.6 ± 0.1
same,Purity,[3]; 6 month,98.8 ± 0.1
same,Purity,[3]; Day 0,98.8 ± 0.2
same,Stability of the solution at a temperature higher than 40° C. and a pH lower than 3 or greater than 6,[4]; 7% solution in water,not stable
H-Val-Pro-Asp[OCH(CH3)2]-Pro-Arg(NO2)—OCH(CH3)2•HCl [T-3],pH at which the solution is stable,[2],3-6
same,Time the solution can be stored at room temperature,[2],about 1 year
same,Purity at 3 month,[3],99.0 ± 0.2
same,Purity at 6 month,[3],99.0 ± 0.2
same,Purity at 9 month,[3],98.8 ± 0.2
same,Purity at 12 month,[3],98.7 ± 0.0
same,Purity at 18 month,[3],98.6 ± 0.0
same,Purity at 24 month,[3],98.5 ± 0.2
same,Purity at Day 0,[3],99.1 ± 0.2
same,Stability of the pure powder,[3],very stable
same,Purity (%) at day 30 (60° C.),[4],33.2 ± 0.3%
same,Purity (%) at day 90 (60° C.),[4],0%
same,Purity (%) at day 180 (60° C.),[4],0%
same,Purity (%) at day 360 (60° C.),[4],0%
same,Purity(%) at day 0,[4],99.1 ± 0.1%
same,Purity(%) at day 30 (5° C.),[4],98.9 ± 0.2%
same,Purity(%) at day 30 (25° C.),[4],97.9 ± 0.3%
same,Purity(%) at day 30 (40° C.),[4],71.9 ± 0.2%
same,Purity(%) at day 90 (5° C.),[4],98.6 ± 0.3%
same,Purity(%) at day 90 (25° C.),[4],97.2 ± 0.3%
same,Purity(%) at day 90 (40° C.),[4],34.2 ± 0.3%
same,Purity(%) at day 180 (5° C.),[4],97.9 ± 0.2%
same,Purity(%) at day 180 (25° C.),[4],95.2 ± 0.3%
same,Purity(%) at day 180 (40° C.),[4],13.5 ± 0.3%
same,Purity(%) at day 360 (5° C.),[4],97.4 ± 0.3%
same,Purity(%) at day 360 (25° C.),[4],92.5 ± 0.4%
same,Purity(%) at day 360 (40° C.),[4],0%
H-Val-Pro-Gly-Pro-Arg(NO2)—OCH(CH3)2•HCl (H-VPGP[Arg(NO2)]-OiPr; also: HCl salt),pH at which the solution is stable,[2],3-6
same,Time the solution can be stored at room temperature,[2],about 1 year
same,Purity at 3 month,[3]; in % (unit assumed),98.8 ± 0.2
same,Purity at 6 month,[3]; in % (unit assumed),98.6 ± 0.2
same,Purity at 9 month,[3]; in % (unit assumed),98.5 ± 0.2
same,Purity at 12 month,[3]; in % (unit assumed),98.4 ± 0.3
same,Purity at 18 month,[3]; in % (unit assumed),98.2 ± 0.3
same,Purity at 24 month,[3]; in % (unit assumed),98.2 ± 0.2
same,Purity at Day 0,[3]; in % (unit assumed),98.7 ± 0.2
same,Stability of the pure powder,[3],very stable
same,Purity (%) at day 30 (60° C.),[4],32.4 ± 0.4%
same,Purity (%) at day 90 (60° C.),[4],0%
same,Purity (%) at day 180 (60° C.),[4],0%
same,Purity (%) at day 360 (60° C.),[4],0%
same,Purity(%) at day 0,[4],98.7 ± 0.2%
same,Purity(%) at day 30 (5° C.),[4],98.5 ± 0.3%
same,Purity(%) at day 30 (25° C.),[4],97.7 ± 0.2%
same,Purity(%) at day 30 (40° C.),[4],71.6 ± 0.2%
same,Purity(%) at day 90 (5° C.),[4],98.4 ± 0.3%
same,Purity(%) at day 90 (25° C.),[4],97.0 ± 0.3%
same,Purity(%) at day 90 (40° C.),[4],32.7 ± 0.3%
same,Purity(%) at day 180 (5° C.),[4],97.8 ± 0.3%
same,Purity(%) at day 180 (25° C.),[4],95.1 ± 0.3%
same,Purity(%) at day 180 (40° C.),[4],12.2 ± 0.3%
same,Purity(%) at day 360 (5° C.),[4],97.3 ± 0.3%
same,Purity(%) at day 360 (25° C.),[4],92.2 ± 0.2%
same,Purity(%) at day 360 (40° C.),[4],0%
